Toxic doses and inconclusive results are not listed. How the source made its calls: active means survival T/C of 150% or more; inactive means T/C below 125% in these data. Peptide text beside a SMILES is read from it.
System: P388 leukemia ip, CD2F1 mice, survival T/C
Experiment: NCI In Vivo Anticancer Drug Screen. Data for tumor model P388 Leukemia (intraperitoneal) in CD2F1 (CDF1) mice
Settings: endpoint: median survival time, higher = longer survival
In short: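 Mice carrying the transplanted tumor received test compound or vehicle. Survival was recorded in each group, and the value is the treated-group measurement divided by that of the vehicle-treated control group.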

[1] = dose: 60.0 mg/kg/injection, schedule: Q01DX005 (ip), vehicle: saline with Tween-80
[2] = dose: 120.0 mg/kg/injection, schedule: Q01DX005 (ip), vehicle: saline with Tween-80
[3] = dose: 240.0 mg/kg/injection, schedule: Q01DX005 (ip), vehicle: saline with Tween-80
[4] = dose: 50.0 mg/kg/injection, schedule: Q01DX009 (ip), vehicle: saline
[5] = dose: 100.0 mg/kg/injection, schedule: Q01DX009 (ip), vehicle: saline
[6] = dose: 50.0 mg/kg/injection, schedule: Q01DX005 (ip), vehicle: saline with Tween-80
[7] = dose: 100.0 mg/kg/injection, schedule: Q01DX005 (ip), vehicle: saline with Tween-80
[8] = dose: 200.0 mg/kg/injection, schedule: Q01DX005 (ip), vehicle: saline with Tween-80
[9] = dose: 60.0 mg/kg/injection, schedule: Q01DX005 (ip), vehicle: saline
[10] = dose: 120.0 mg/kg/injection, schedule: Q01DX005 (ip), vehicle: saline
[11] = dose: 240.0 mg/kg/injection, schedule: Q01DX005 (ip), vehicle: saline
[12] = dose: 60.0 mg/kg/injection, schedule: Q01DX005 (ip), vehicle: Klucel (hydroxypropylcellulose) (HPC)
[13] = dose: 120.0 mg/kg/injection, schedule: Q01DX005 (ip), vehicle: Klucel (hydroxypropylcellulose) (HPC)
[14] = dose: 100.0 mg/kg/injection, schedule: Q01DX009 (ip), vehicle: saline with Tween-80
[15] = dose: 200.0 mg/kg/injection, schedule: Q01DX009 (ip), vehicle: saline with Tween-80
[16] = dose: 50.0 mg/kg/injection, schedule: Q01DX009 (ip), vehicle: Klucel (hydroxypropylcellulose) (HPC)
[17] = dose: 100.0 mg/kg/injection, schedule: Q01DX009 (ip), vehicle: Klucel (hydroxypropylcellulose) (HPC)
[18] = dose: 50.0 mg/kg/injection, schedule: Q01DX009 (ip), vehicle: saline with Tween-80
[19] = dose: 200.0 mg/kg/injection, schedule: Q01DX009 (ip), vehicle: saline
[20] = dose: 12.5 mg/kg/injection, schedule: Q01DX009 (ip), vehicle: saline with Tween-80
[21] = dose: 25.0 mg/kg/injection, schedule: Q01DX009 (ip), vehicle: saline with Tween-80
[22] = dose: 240.0 mg/kg/injection, schedule: Q01DX005 (ip), vehicle: Klucel (hydroxypropylcellulose) (HPC)

Measured: T/C

O=C(NC(O)C(=O)O)c1ccc(Cl)cc1 (stereo unspecified)
inactive: [1] 97 % of control | [2] 95 % of control | [3] 97 % of control

Nc1nnn(/N=C\C=N/n2nnc(N)n2)n1
inactive: dose: 100.0 mg/kg/injection, schedule: Q01DX001 (ip), vehicle: Klucel (hydroxypropylcellulose) (HPC) 94 % of control | dose: 200.0 mg/kg/injection, schedule: Q01DX001 (ip), vehicle: Klucel (hydroxypropylcellulose) (HPC) 102 % of control | dose: 400.0 mg/kg/injection, schedule: Q01DX001 (ip), vehicle: Klucel (hydroxypropylcellulose) (HPC) 105 % of control

C=C1C(=O)OC2(C)C3CCC(C3)C12 (stereo unspecified)
inactive: [4] 96 % of control | [5] 113 % of control

COc1ccc(Cc2cc(N=NC(N)=O)c(OC)cc2O)cc1
inactive: dose: 12.5 mg/kg/injection, schedule: Q01DX005 (ip), vehicle: saline with Tween-80 93 % of control | dose: 25.0 mg/kg/injection, schedule: Q01DX005 (ip), vehicle: saline with Tween-80 87 % of control | [6] 88 % of control

O=C1C(Sc2ccccc2)C(c2ccccc2)C1Sc1ccccc1 (stereo unspecified)
inactive: [6] 96 % of control | [7] 105 % of control | [8] 99 % of control

c1ccc2nc(-c3cnc4ccccc4n3)cnc2c1
inactive: dose: 100.0 mg/kg/injection, schedule: Q04DX002 (ip), vehicle: saline with Tween-80 95 % of control | dose: 200.0 mg/kg/injection, schedule: Q04DX002 (ip), vehicle: saline with Tween-80 90 % of control

CCCCN(CCCC)c1cc(=O)nc2ccccn12
inactive: [9] 101 % of control | [10] 101 % of control | [11] 100 % of control

CCN(CC)CCNC(c1ccc(OC)cc1)C(Cl)(Cl)Cl (stereo unspecified)
inactive: [9] 94 % of control | [10] 94 % of control

Cc1ccccc1C(=O)NC1c2ccccc2Oc2ccccc21
inactive: [6] 100 % of control | [7] 100 % of control | [8] 100 % of control

O=C(Cc1nc2ccccc2[nH]1)NNC(=S)Nc1ccc(Cl)cc1
inactive: [12] 88 % of control | [13] 86 % of control

Cc1c2oc3c(C)ccc(C(=O)NC(C(=O)NC(C(=O)O)C(C)C)C(C)O)c3nc-2c(C(=O)NC(C(=O)NC(C(=O)O)C(C)C)C(C)O)c(N)c1=O (stereo unspecified)
inactive: dose: 0.05 mg/kg/injection, schedule: Q01DX009 (ip), vehicle: water 100 % of control | dose: 0.1 mg/kg/injection, schedule: Q01DX009 (ip), vehicle: water 97 % of control | dose: 0.2 mg/kg/injection, schedule: Q01DX009 (ip), vehicle: water 94 % of control | dose: 0.4 mg/kg/injection, schedule: Q01DX009 (ip), vehicle: water 99 % of control | dose: 0.8 mg/kg/injection, schedule: Q01DX009 (ip), vehicle: water 97 % of control | dose: 1.6 mg/kg/injection, schedule: Q01DX009 (ip), vehicle: water 102 % of control

CC1CC(=O)C2(C)C1CC1CCC2(C)OC1(C)C (stereo unspecified)
inactive: [14] 100 % of control | [15] 102 % of control | dose: 400.0 mg/kg/injection, schedule: Q01DX009 (ip), vehicle: saline with Tween-80 100 % of control

O=C(N=Nc1ccccc1)NC1CCCCC1
inactive: [6] 100 % of control | [7] 101 % of control | [8] 100 % of control

COc1ccc(N=Cc2ccccc2P(c2ccccc2)c2ccccc2)cc1
inactive: [16] 101 % of control | [17] 100 % of control | dose: 200.0 mg/kg/injection, schedule: Q01DX009 (ip), vehicle: Klucel (hydroxypropylcellulose) (HPC) 100 % of control

CN1C2CCC1CC(=NOS(=O)(=O)CC13CCC(CC1=O)C3)C2 (stereo unspecified)
inactive: dose: 50.0 mg/kg/injection, schedule: Q01DX005 (ip), vehicle: saline 100 % of control | dose: 100.0 mg/kg/injection, schedule: Q01DX005 (ip), vehicle: saline 103 % of control | dose: 200.0 mg/kg/injection, schedule: Q01DX005 (ip), vehicle: saline 115 % of control

CC(C)(C)c1ccc(N2CSC(=S)N(c3ccc(C(C)(C)C)cc3)C2)cc1
inactive: [18] 96 % of control | [14] 89 % of control | [15] 90 % of control

CC(C)CC(N)C(=O)NC(Cc1cnc[nH]1)C(=O)O (stereo not drawn) (H-Leu-His-OH; configuration not given here)
inactive: [9] 97 % of control | [10] 106 % of control | [11] 104 % of control

CCCCC(CC1CCCCC1)C(=O)O (stereo unspecified)
inactive: dose: 50.0 mg/kg/injection, schedule: Q01DX001 (ip), vehicle: saline with Tween-80 113 % of control | dose: 100.0 mg/kg/injection, schedule: Q01DX001 (ip), vehicle: saline with Tween-80 109 % of control | dose: 200.0 mg/kg/injection, schedule: Q01DX001 (ip), vehicle: saline with Tween-80 109 % of control

CC1(C)C(C=O)=CCC1CC(N)=O (stereo unspecified)
inactive: [1] 117 % of control | [2] 111 % of control

COc1ccccc1/C=C/C(=O)c1ccccc1
inactive: [18] 96 % of control | [14] 94 % of control | [15] 96 % of control

CCOC(=O)NOC1CCCCO1 (stereo unspecified)
inactive: [4] 91 % of control | [5] 105 % of control | [19] 104 % of control

N#CC(C(=O)C(=O)NC1C2CC3CC(C2)CC1C3)c1c(Cl)cccc1Cl (stereo unspecified)
inactive: [1] 104 % of control | [2] 106 % of control | [3] 100 % of control

C1CCNCC1.O=C([CH-]C(=O)C(F)(F)F)c1cccs1.O=C([CH-]C(=O)C(F)(F)F)c1cccs1.O=C([CH-]C(=O)C(F)(F)F)c1cccs1.O=C([CH-]C(=O)C(F)(F)F)c1cccs1.[Eu+3]
inactive: [20] 95 % of control | dose: 25.0 mg/kg/injection, schedule: Q01DX009 (ip), vehicle: Klucel (hydroxypropylcellulose) (HPC) 105 % of control | [21] 95 % of control | [16] 109 % of control | [18] 99 % of control | [17] 109 % of control | [14] 89 % of control

CC(=O)Oc1cccc2c1C(=O)C1CC=CC(OC(C)=O)C1C2=O (stereo unspecified)
inactive: [12] 100 % of control | [13] 100 % of control | [22] 100 % of control

CCOC(=O)Cc1ccc2c(c1)sc1nc(-c3ccc(OC)cc3)cn12
inactive: dose: 50.0 mg/kg/injection, schedule: Q01DX009 (ip), vehicle: DMSO 104 % of control | dose: 100.0 mg/kg/injection, schedule: Q01DX009 (ip), vehicle: DMSO 103 % of control | dose: 200.0 mg/kg/injection, schedule: Q01DX009 (ip), vehicle: DMSO 94 % of control

CC([C@H](c1ccccc1)C1CCC(C(N)=O)(N2CCOCC2)C1)[N+](=O)[O-] (stereo partly specified)
inactive: [12] 99 % of control | [13] 99 % of control | [22] 93 % of control

O=C(O)CCCc1cc(I)c(N(CCCl)CCCl)c(I)c1
inactive: [20] 121 % of control | [21] 107 % of control | [18] 121 % of control

Cc1cccc(=O)n1CCC#N
inactive: [5] 95 % of control | [19] 100 % of control | dose: 400.0 mg/kg/injection, schedule: Q01DX009 (ip), vehicle: saline 100 % of control

CC(C)COC(=O)NC(C(=O)N(C(=O)NC1CCCCC1)C1CCCCC1)C(C)C (stereo unspecified)
inactive: dose: 50.0 mg/kg/injection, schedule: Q01DX005 (ip), vehicle: Klucel (hydroxypropylcellulose) (HPC) 100 % of control | dose: 100.0 mg/kg/injection, schedule: Q01DX005 (ip), vehicle: Klucel (hydroxypropylcellulose) (HPC) 95 % of control | dose: 200.0 mg/kg/injection, schedule: Q01DX005 (ip), vehicle: Klucel (hydroxypropylcellulose) (HPC) 95 % of control

COc1ccc(NC(=O)C#N)cc1
inactive: dose: 7.5 mg/kg/injection, schedule: Q01DX005 (ip), vehicle: saline with Tween-80 105 % of control | dose: 15.0 mg/kg/injection, schedule: Q01DX005 (ip), vehicle: saline with Tween-80 113 % of control

From PubChem BioAssay AID330 (DTP/NCI, 2004)
